Laboratory results as given in patent US10966993B2, “Pharmaceutical composition comprising a sulfonylurea drug and preparation method thereof” (JIANGSU AOSAIKANG PHARMACEUTICAL CO., LTD., priority 2016, dated 2021).

Tests used:
[1] = background statement; cited from earlier work
[2] = test system: MCAO rats; assay: Area and swelling degree of cerebral infarction in rat MCAO models; type: in vivo, Sprague-Dawley (SD) rat; details: n=8, glibenclamide 10 μg/kg ip at ischemia 4 h + 200 ng/h sc for 44 hours, after ischemia for 48 hours
Description: 7.2 Experiment Animals: Male Sprague-Dawley (SD) rat, clean grade, weighing at 200˜230 g. The temperature of animal feeding room was maintained at 20˜24° C., the humidity was maintained at 30˜70%; a cycle of lighting on 12 hours/lighting off 12 hours (06:00 AM on, 18:00 PM off) every day was employed. During the experiment, the animals were feed separately, and had free access to water and food.
The test drugs in group GB was formulated as follows: glibenclamide was dissolved in a little DMSO (dimethyl sulfoxide), the resulting solution was diluted to a DMSO concentration of 5 vol % with physiological saline, and the pH of the solution was adjusted to 8˜8.5 with NaOH. […]
Rats were rested for about 1 week before the experiment started. […] The blood flow in the brain was monitored with a laser Doppler (Model moorVMS-LDF2, Manufacturer moor) respectively pre-operation, post-operation and immediately after reperfusion, and the molding in which the ratio of the postoperative blood flow to the preoperative blood flow was less than 30% was regarded as a qualified molding. […]
After ischemia for 48 hours, the brain was taken and put into a brain slicer to slice coronal sections through the brain (2 mm each piece), stained at dark with 1% TTC for 15 min at 37° C., and analyzed for the area of infarction after taking a photograph. […]

In the case of COc1ccc(Cl)cc1C(=O)NCCc1ccc(S(=O)(=O)NC(=O)NC2CCCCC2)cc1 [glibenclamide, 5-chloro-N-(4-[N-(cyclohexylcarbamoyl)aminosulfonyl]phenethyl)-2-methoxybenzamide], the water solubility [1] is given as “less than 5 μg/ml” and the “Swelling degree (area of infarction side hemisphere / non-infarction side hemisphere)” value [2] is given as 1.31 ± 0.04.
